We go through 1 compound from publication PMC8622385, “Metabolites of Prickly Rose: Chemodiversity and Digestive-Enzyme-Inhibiting Potential of Rosa acicularis and the Main Ellagitannin Rugosin D” (Plants, 2021).

The assay deals with proteases (pepsin, trypsin, chymotrypsin). Put plainly: Simulated gastrointestinal digestion of artificial substrate mixture, protease activity (7-amino-4-methylcoumarin marker, HPLC-DAD). In kind it is biochemical, porcine, bovine. The settings on record: doses of 1–1000 μg/mL. The text has this: To study the inhibitory potential of R. acicularis extracts on the digestive enzymes, we used the standardized static, simulated gastrointestinal digestion method of Minekus et al., based on physiologically relevant conditions of digestion. In brief, the artificial substrate mixture, including ethylidene-p-nitrophenyl-α-D-maltoheptaoside (as a carbohydrate model), Nα-benzoyl-L-arginine-7-amino-4-methylcoumarin hydrochloride (as a protein model) and 4-methylumbelliferyl heptanoate (as a lipid model), was digested with extracts of R. acicularis leaves, flowers, roots and fruits ([…]) by gastric and intestinal enzymatic and electrolyte mixtures (or juices). […] In a final step, concentrations of specific markers, such as p-nitrophenol, 7-amino-4-methylcoumarin and 4-methylumbelliferone, released from an artificial nutrient mixture, were analyzed by an HPLC-DAD assay. […]
For simulation, the known standardized static gastrointestinal digestion method of Minekus et al. was used with no variation. […] The supernatant was analyzed using an HPLC-DAD assay (Section 3.7) to quantify the level of markers as p-nitrophenol, 7-amino-4-methylcoumarin and 4-methylumbelliferone formed from ethylidene-p-nitrophenyl-α-D-maltoheptaoside, Nα-benzoyl-L-arginine- 7-amino-4-methylcoumarin hydrochloride and 4-methylumbelliferyl heptanoate, respectively. […]

In the case of `O=C(O[C@@H]1O[C@@H]2COC(=O)c3cc(Oc4c(C(=O)O[C@@H]5O[C@@H]6COC(=O)c7cc(O)c(O)c(O)c7-c7c(cc(O)c(O)c7O)C(=O)O[C@H]6[C@H](OC(=O)c6cc(O)c(O)c(O)c6)[C@H]5OC(=O)c5cc(O)c(O)c(O)c5)cc(O)c(O)c4O)c(O)c(O)c3-c3c(cc(O)c(O)c3O)C(=O)O[C@H]2[C@H](OC(=O)c2cc(O)c(O)c(O)c2)[C@H]1OC(=O)c1cc(O)c(O)c(O)c1)c1cc(O)c(O)c(O)c1` [Rugosin D], the “Inhibition of protease activity in simulated digestion (in words)” value is “not substantially inhibited”.
